Literature values, collected in patent publication US11318148B2, “Preservative-free treprostinil devices” (SteadyMed, Ltd., priority 2014, dated 2022).

Columns and labels:
[1] = in vivo
[2] = has to be kept on ice during administration

## CCCCC[C@H](O)/C=C/[C@@H]1[C@H]2C/C(=C/CCCC(=O)O)O[C@H]2C[C@H]1O [Flolan]
[1]
  half-life: 3 to 5 min
[2]
  stability at room temperature: unstable at room temperature
